According to publication PMC5713897 (Investigative Ophthalmology & Visual Science, 2017):
Values after ≈ are worked out from the molar mass of the structure shown. Like-named read-outs stand apart in the source and are kept apart here.

How the values were obtained:
[1] = cited from earlier work
[2] = system: Human Tenon fibroblast cells (HTFs)
Description: Human Tenon fibroblast cells (HTFs) were maintained in fibroblast culture medium composed of Dulbecco's modified Eagle's medium (DMEM) supplemented with 10% (vol/vol) fetal bovine serum (FBS), 2 mM L-glutamine, 100 IU/mL penicillin, and 100 g/mL streptomycin (all from Gibco Life Technologies, Paisley, Scotland, UK) at 37°C with 5% (vol/vol) CO2 in air. The medium was changed every 3 to 4 days until cells reached confluence. The cells were passaged at a ratio of 1:4. Cultures were used between passages 3 and 10 for the gel contraction experiments.[33]
HTF cells (7 × 10^4 cells/mL) were seeded in collagen type-1 lattice (150 μL) in a Matteck dish. […] The drug solutions were added to the lattice (2 mL) at each individual concentration and incubated at 37°C. The gels were imaged daily from day 0 to day 7, and the percent contraction was calculated based on the decrease in gel area using ImageJ software (http://imagej.nih.gov/ij/; provided in the public domain by the National Institutes of Health, Bethesda, MD, USA). […] Each formulation was tested in triplicate.

[3] = weak hydroxamic acid; cited from earlier work
[4] = Phase solubility study of ilomastat with 2-hydroxypropyl-β-cyclodextrin (HPLC); type: physicochemical
Description: The mixture was left to stir overnight.
A flow rate of 1 mL/min was used with 0.1% trifluoroacetic acid in water and acetonitrile as eluents A and B, respectively, with a linear gradient from 80% A to 70% B in 17 minutes. The detection wavelength was 280 nm.
The mixture was left to stir overnight. Benzalkonium chloride (BAC) (0.8 mg) was then added to the mixture, and the mixture was filtered (0.22 μm PES).

solubility ([4]; PBS, pH 7.4, read-out: aqueous solubility in PBS (pH 7.4)) [µg/mL] | solubility ([4]; water, read-out: aqueous solubility in water) [µg/mL] | Compound | water solubility ([1]; water) [µg/mL] | inhibition of collagen gel contraction (in words) ([2]; 7-day incubation) | gel contraction ([2]; day 7, 0.01 μM ilomastat, HTFs in collagen, n = 3) | pKa [3] | solubility in balanced salt solution ([1]; balanced salt solution, 35.5°C) [µg/mL]
 |  | CC(O)COC[C@H]1O[C@@H]2O[C@H]3[C@H](O)[C@@H](O)[C@@H](O[C@H]4[C@H](O)[C@@H](O)[C@@H](O[C@H]5[C@H](O)[C@@H](O)[C@@H](O[C@H]6[C@H](O)[C@@H](O)[C@@H](O[C@H]7[C@H](O)[C@@H](O)[C@@H](O[C@H]8[C@H](O)[C@@H](O)[C@@H](O[C@H]1[C@H](O)[C@H]2O)O[C@@H]8COCC(C)O)O[C@@H]7COCC(C)O)O[C@@H]6COCC(C)O)O[C@@H]5COCC(C)O)O[C@@H]4COCC(C)O)O[C@@H]3COCC(C)O (stereo partly drawn) [2-Hydroxypropyl-β-cyclodextrin] | 450000 (≈ 292000 µM) |  |  |  | 
160 (≈ 412 µM) | 140 (≈ 360 µM) | CNC(=O)[C@H](Cc1c[nH]c2ccccc12)NC(=O)[C@@H](CC(=O)NO)CC(C)C [ilomastat] |  | significantly inhibited collagen gel contraction | 51.79% ± 2.05 | 8.9 | 161
